Measured values from the supplement of paper PMC7108870.

Tests used:
HEK293sieSTAT3(wt) [1] = experiment: drug sensitivity score (DSS), cytotoxicity CellTox Green (DSS (dimensionless)); higher = more cytotoxic; extreme values may be limits of the assay; details: 72 h; STAT3 variant: wild type
Procedure, shortened: (§1)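 Each value is one representative of two experiments in which HEK293 cells overexpressing wild-type or mutant STAT3 with a STAT3-dependent luciferase reporter were exposed to compounds at 5 concentrations (10-fold dilutions) for 72 hours at 37°C and 5% CO2. Readouts were CellTox Green fluorescence and then CellTiter-Glo luminescence, normalised to negative and positive control wells. The drug sensitivity score was based on the dose-response curve area and computed in Breeze.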

HEK293sieSTAT3(Y640F) [2] = experiment: as above; details: 72 h; STAT3 variant: Y640F (constitutively active)
Procedure, shortened: as §1

HEK293sieSTAT3(wt) [3] = experiment: drug sensitivity score (DSS), viability CellTiter-Glo (DSS (dimensionless)); higher = more growth inhibition; extreme values may be limits of the assay; details: 72 h; STAT3 variant: wild type
Procedure, shortened: as §1

HEK293sieSTAT3(Y640F) [4] = experiment: as above; details: 72 h; STAT3 variant: Y640F (constitutively active)
Procedure, shortened: as §1

Structure (SMILES)	drug sensitivity score (HEK293sieSTAT3(wt) [1])	drug sensitivity score (HEK293sieSTAT3(Y640F) [2])	drug sensitivity score (HEK293sieSTAT3(wt) [3])	drug sensitivity score (HEK293sieSTAT3(Y640F) [4])
O=C(/C=C/c1cccnc1)NCCCCC1CCN(C(=O)c2ccccc2)CC1 [Daporinad] (top concentration tested 1000 nM)	0	3.19	32.8	32.8
O=C(O)c1ccc(Nc2ncc3c(n2)-c2ccc(Cl)cc2C(c2c(F)cccc2F)=NC3)cc1 [MLN-8054] (top concentration tested 10000 nM)	2.73	0	11	6.2
NS(=O)(=O)NCCNc1nonc1/C(=N/O)Nc1ccc(F)c(Br)c1 [Epacadostat] (top concentration tested 10000 nM)	0	0	0.37	1.76
O=C(O)CC[C@H]1CC[C@@](c2cc(F)ccc2F)(S(=O)(=O)c2ccc(Cl)cc2)CC1 [MK-0752] (top concentration tested 1000 nM)	0	0	0	1.59
CCNC(=O)c1noc(-c2cc(C(C)C)c(O)cc2O)c1-c1ccc(CN2CCOCC2)cc1 [Luminespib] (top concentration tested 1000 nM)	15.9	7.6	27.8	23.7
Cc1ccc2nc(CN(CCN(Cc3nc4ccc(C)cc4[nH]3)Cc3nc4ccc(C)cc4[nH]3)Cc3nc4ccc(C)cc4[nH]3)[nH]c2c1 (top concentration tested 50000 nM)	5.64	3.51	3.52	4.22
C[C@]12O[C@H](C[C@]1(O)CO)n1c3ccccc3c3c4c(c5c6ccccc6n2c5c31)CNC4=O [Lestaurtinib] (top concentration tested 1000 nM)	4.55	7.22	8.27	9.27
CS(=O)(=O)c1ccc(C2=C(c3ccccc3)C(=O)OC2)cc1 [Rofecoxib] (top concentration tested 10000 nM)	0	0	0	0
CO[C@@]12[C@H](COC(N)=O)C3=C(C(=O)C(C)=C(N)C3=O)N1C[C@@H]1N[C@@H]12 [Mitomycin C] (top concentration tested 10000 nM)	1.95	0.86	5.72	14.5
COc1ccc(-c2nc(N3CCOCC3)c3sc(CN(C)c4ncc(C(=O)NO)cn4)cc3n2)cn1 [CUDC-907] (top concentration tested 10000 nM)	30.6	19.1	37.1	36.8
Cc1ccc(C(=O)N(CCCN)[C@@H](c2oc3cc(Cl)ccc3c(=O)c2Cc2ccccc2)C(C)C)cc1 (top concentration tested 100 nM)	8.48	0.83	12.3	10.7
NC(=S)N/N=C/c1ncccc1N [Triapine] (top concentration tested 10000 nM)	0.84	1.5	9.19	14.7
Nc1ncnc2c1nc(Cl)n2[C@@H]1O[C@H](CO)[C@@H](O)[C@H]1O [8-chloro-adenosine] (top concentration tested 50000 nM)	7.97	2.41	18.4	16.2
Cc1c(N)nc([C@H](CC(N)=O)NC[C@H](N)C(N)=O)nc1C(=O)N[C@H](C(=O)N[C@H](C)[C@@H](O)[C@H](C)C(=O)N[C@H](C(=O)NCCc1nc(-c2nc(C(=O)NCCC[S+](C)C)cs2)cs1)[C@@H](C)O)[C@@H](OC1OC(CO)C(O)C(O)C1OC1OC(CO)C(O)C(OC(N)=O)C1O)c1cnc[nH]1 (stereo not given in full) [Bleomycin] (top concentration tested 10000 nM)	5.92	4.25	18.8	20.1
CO[C@H]1/C=C\C=C(/C)C(=O)NC2=CC(=O)C(NCCN(C)C)=C(C[C@@H](C)C[C@H](OC)[C@H](O)[C@@H](C)/C=C(\C)[C@@H]1OC(N)=O)C2=O [Alvespimycin] (top concentration tested 1000 nM)	16.2	7.84	16.6	14.9
C1=N/C2=N/c3ccc(OCCN4CCCC4)c(c3)COC/C=C/COCc3cccc(c3)C(=C1)N2 [Pacritinib] (top concentration tested 10000 nM)	10.8	6.22	11.1	12.1
CC(C)Nc1cc(-c2c[nH]c(C(=O)N[C@H](CO)c3cccc(Cl)c3)c2)c(Cl)cn1 [Ulixertinib] (top concentration tested 10000 nM)	0	0	3.95	4.62
O=C(NC[C@H](O)CN1CCc2ccccc2C1)c1cc(NC2COC2)ncn1 (top concentration tested 10000 nM)	0	0	0	0
CS(=O)(=O)CCNCc1ccc(-c2ccc3ncnc(Nc4ccc(OCc5cccc(F)c5)c(Cl)c4)c3c2)o1 [Lapatinib] (top concentration tested 1000 nM)	2.09	0	0	0
CN(C)C(=O)c1ccc(S(=O)(=O)c2ccc(NC(=O)[C@@](C)(O)C(F)(F)F)c(Cl)c2)cc1 [AZD7545] (top concentration tested 10000 nM)	0	0	0.28	0.82
